Reference: US20060142279A1 (priority 2004, published 2006)
Where two headings read alike, the source gives them in different places.

What was measured:
[1] = test system: dormant Mycobacterium tuberculosis (H37RV); test: Wayne dormancy model, CFU assay; conditions: for reduction of the dormant bacteria (CFU compared to untreated control): drug added after 14 days, cultures collected after 22 days
[2] = test system: dormant M. bovis BCG, expressing the luciferase gene on plasmid pSMT1; type: cell-based, Mycobacterium bovis; conditions: 7 days of anaerobiosis, then 5 days in drug free medium
[3] = test system: dormant Mycobacterium bovis BCG; type: cell-based

Compound: COc1nc2ccc(Br)cc2cc1C(c1ccccc1)C(O)(CCN(C)C)c1ccc2c(c1)OCO2 (stereo not drawn) [Compound 75]
- reduction of the dormant bacteria (CFU compared to untreated control) ([1]; 1 μg/ml): 0.87 log10
- reduction of the dormant bacteria (CFU compared to untreated control) ([1]; 10 μg/ml): 1.14 log10

Compound: COc1nc2ccc(Br)cc2cc1C(c1ccc(C)cc1)C(O)(CCN(C)C)c1cccc2ccccc12 (stereo not drawn) [Compound 71]
- reduction of the dormant bacteria (CFU compared to untreated control) ([1]; 1 μg/ml): 1.55 log10
- reduction of the dormant bacteria (CFU compared to untreated control) ([1]; 10 μg/ml): more than 2 log10

Compound: NNC(=O)c1ccncc1 [Isoniazid, reference compound]
- effect on dormant bacteria (Luciferase counts), in words ([2]; 10 μg/ml): no effect
- effect on dormant bacteria, in words ([1]; 10 μg/ml): did not have any effect

Compound: COc1nc2ccc(Br)cc2cc1[C@@H](c1ccccc1)[C@@](O)(CCN(C)C)c1cccc2ccccc12 [Compound 12, (αS, βR)-6-bromo-α-[2-(dimethylamino)ethyl]-2-methoxy-α-1-naphthalenyl-β-phenyl-3-quinolineethanol]
- killing of dormant bacteria as compared to untreated control (Luciferase counts, RLU) ([2]; 0.1 μg/ml): about 0.5 log10
- killing of dormant bacteria as compared to untreated control (Luciferase counts, RLU) ([2]; 1 μg/ml): ~2 log10
- reduction in bacterial survival as compared to untreated control (Luciferase counts, RLU) ([2]; 10 μg/ml): approximately 4 log10
- reduction of the dormant bacteria (CFU compared to untreated control) ([1]; 1 μg/ml): 1.41 log10
- reduction in CFU counts compared with untreated control ([3]; 0.1 μg/ml, day 2 after anaerobiosis): ~0.5 log10
- reduction in CFU counts compared with untreated control ([3]; 0.1 μg/ml, day 5 after anaerobiosis): ~1.1 log10
- reduction in CFU counts compared with untreated control ([3]; 1 μg/ml, day 2 after anaerobiosis): ~2.3 log10
- reduction in CFU counts compared with untreated control ([3]; 1 μg/ml, day 5 after anaerobiosis): ~4.7 log10
- reduction in CFU counts compared with untreated control ([3]; 10 μg/ml, day 2 after anaerobiosis): approximately 4 log10
- reduction in CFU counts compared with untreated control ([3]; 10 μg/ml, day 5 after anaerobiosis): about 6 log10

Compound: Cc1ncc([N+](=O)[O-])n1CCO [metronidazole, reference compound]
- reduction in bacterial survival as compared to untreated control (Luciferase counts, RLU) ([2]; 10 μg/ml): 2 log10
- effect on dormant bacteria, in words ([1]; 100 μg/ml, added at start): good efficacy

Compound: COc1nc2ccc(Br)cc2cc1C(c1ccccc1)C(O)(CCN(C)C)c1ccccc1 (stereo not drawn)
- melting point: 84 °C

Compound: COc1nc2ccc(Br)cc2cc1C(c1ccccc1)C(O)(CCn1cncn1)c1cccc2ccccc12 (stereo not drawn) [Compound 172]
- reduction of the dormant bacteria (CFU compared to untreated control) ([1]; 1 μg/ml): 0.29 log10
- reduction of the dormant bacteria (CFU compared to untreated control) ([1]; 10 μg/ml): 0.98 log10
